Test results from patent publication US9029337B2, “Modulation of factor 7 expression” (Isis Pharmaceuticals, Inc., priority 2007, dated 2015).
Strand notation (5' to 3'): a small letter for the sugar, then the base; units joined by * are phosphorothioate-linked, units joined directly phosphodiester-linked; [ ] holds rarer units or linkages, { } end groups; capitals alone tell only the bases. e = 2'-O-(2-methoxyethyl) (MOE); [5mC] = 5-methylcytosine; d = 2'-deoxy (DNA)

How the values were obtained:
Assay type in all cases: cell-based
human Factor 7 mRNA [1] = assay: Dose-dependent antisense inhibition of human Factor 7 in HepB3 cells, electroporation
Method: (§1) The gapmers were also transfected via electroporation and their dose-dependent inhibition of human Factor 7 mRNA was measured. Cells were plated at a density of 20,000 cells per well and transfected via electroporation with 3.125 μM, 6.25 μM, 12.5 μM, 25 μM, 50 μM, and 100 μM concentrations of antisense oligonucleotide, as specified in Table 15. After a treatment period of approximately 16 hours, RNA was isolated from the cells and Factor 7 mRNA levels were measured by quantitative real-time PCR. Human Factor 7 primer probe set RTS 2927 was used to measure mRNA levels. Factor 7 mRNA levels were adjusted according to total RNA content, as measured by RIBOGREEN®. Results are presented as percent inhibition of Factor 7, relative to untreated control cells.
as §1, with “Cells were” for “The gapmers were also transfected via electroporation and their dose-dependent inhibition of human Factor 7 mRNA was measured. Cells were”, “in […]. After a” for “in Table 15. After a”, “cells and human Factor 7” for “cells and Factor 7”

human Factor 7 mRNA [2] = assay: Dose-dependent antisense inhibition of human Factor 7 in HepB3 cells, lipofectin; details: HepB3 cells, approx. 16 hours (Table 14)
In short: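 HepB3 cells (4,000/well) lipofectin-transfected with antisense oligonucleotide at 3.125 or 6.25 up to 100 nM for ~16 h. Factor 7 mRNA measured by real-time RT-PCR with primer probe set RTS 2927, adjusted to RIBOGREEN total RNA; expressed as percent inhibition versus untreated control cells.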

human Factor 7 mRNA [3] = assay: Antisense inhibition of human Factor 7 mRNA in HepB3 cells, 50 nM antisense oligonucleotide, lipofectin; details: for % Inhibition (human Factor 7 mRNA levels): oligonucleotides targeted to nucleobases 13760 to 13789 of SEQ ID NO: 1 (Table 10); for % Inhibition of human Factor 7 mRNA levels: gapmers targeted to nucleobases 4868 to 4899 of SEQ ID NO: 1, Table 8
In short: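 After transfection of wells containing 4,000 cells, treatment ran for approximately 24 h. RIBOGREEN®-measured total RNA served for normalisation, and inhibition was calculated as a percentage of untreated control.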

[4] = 3.125 μM, approx. 16 hours (Table 15, Example 7)
[5] = 6.25 μM, approx. 16 hours (Table 15, Example 7)
[6] = 12.5 μM, approx. 16 hours (Table 15, Example 7)
[7] = 25 μM, approx. 16 hours (Table 15, Example 7)
[8] = 50 μM, approx. 16 hours (Table 15, Example 7)
[9] = 100 μM, approx. 16 hours (Table 15, Example 7)

| Substance | percent inhibition of Factor 7 mRNA, relative to untreated control cells (human Factor 7 mRNA [1]; [4]) | percent inhibition of Factor 7 mRNA, relative to untreated control cells (human Factor 7 mRNA [1]; [5]) | percent inhibition of Factor 7 mRNA, relative to untreated control cells (human Factor 7 mRNA [1]; [6]) | percent inhibition of Factor 7 mRNA, relative to untreated control cells (human Factor 7 mRNA [1]; [7]) | percent inhibition of Factor 7 mRNA, relative to untreated control cells (human Factor 7 mRNA [1]; [8]) | percent inhibition of Factor 7 mRNA, relative to untreated control cells (human Factor 7 mRNA [1]; [9]) | percent inhibition of Factor 7 mRNA, relative to untreated control cells (human Factor 7 mRNA [2]; 3.125 nM) | percent inhibition of Factor 7 mRNA, relative to untreated control cells (human Factor 7 mRNA [2]; 12.5 nM) | percent inhibition of Factor 7 mRNA, relative to untreated control cells (human Factor 7 mRNA [2]; 25 nM) | percent inhibition of Factor 7 mRNA, relative to untreated control cells (human Factor 7 mRNA [2]; 50 nM) | percent inhibition of Factor 7 mRNA, relative to untreated control cells (human Factor 7 mRNA [2]; 100 nM) | percent inhibition of Factor 7 mRNA, relative to untreated control cells (human Factor 7 mRNA [2]) | % Inhibition (human Factor 7 mRNA levels) (human Factor 7 mRNA [3]) | percent inhibition of Factor 7 mRNA, relative to untreated control cells (human Factor 7 mRNA [1]; 3.125 μM, approx. 16 hours (Table 16, Example 8 confirmation)) | percent inhibition of Factor 7 mRNA, relative to untreated control cells (human Factor 7 mRNA [1]; 6.25 μM, approx. 16 hours (Table 16, Example 8 confirmation)) | percent inhibition of Factor 7 mRNA, relative to untreated control cells (human Factor 7 mRNA [1]; 12.5 μM, approx. 16 hours (Table 16, Example 8 confirmation)) | percent inhibition of Factor 7 mRNA, relative to untreated control cells (human Factor 7 mRNA [1]; 25 μM, approx. 16 hours (Table 16, Example 8 confirmation)) | percent inhibition of Factor 7 mRNA, relative to untreated control cells (human Factor 7 mRNA [1]; 50 μM, approx. 16 hours (Table 16, Example 8 confirmation)) | percent inhibition of Factor 7 mRNA, relative to untreated control cells (human Factor 7 mRNA [1]; 100 μM, approx. 16 hours (Table 16, Example 8 confirmation)) | % Inhibition of human Factor 7 mRNA levels (human Factor 7 mRNA [3]) |
| --- | --- | --- | --- | --- | --- | --- | --- | --- | --- | --- | --- | --- | --- | --- | --- | --- | --- | --- | --- | --- |
| 422177 (antisense e[5mC]*e[5mC]*e[5mC]*dG*d[5mC]*d[5mC]*dG*dG*d[5mC]*dT*d[5mC]*dT*dG*d[5mC]*dT*d[5mC]*dA*eT*e[5mC]*e[5mC]) [compound 422177] | 3% | 10% | 29% | 21% | 31% | 63% | 12% | 44% | 64% | 81% | 88% | 24% | 74% | – | – | – | – | – | – | – |
| 422183 (antisense eG*e[5mC]*eG*d[5mC]*d[5mC]*dA*d[5mC]*d[5mC]*d[5mC]*dG*d[5mC]*d[5mC]*dG*dG*d[5mC]*dT*d[5mC]*eT*eG*e[5mC]) [compound 422183] | 16% | 28% | 37% | 44% | 59% | 71% | 28% | 56% | 78% | 84% | 88% | 37% | 79% | 2% | 3% | 24% | 50% | 64% | 71% | – |
| 422215 (antisense eG*eT*eT*d[5mC]*dT*dG*d[5mC]*dA*dG*dG*dA*dG*d[5mC]*dG*dG*d[5mC]*d[5mC]*eT*eA*eA) [compound 422215] | 11% | 9% | 31% | 50% | 68% | 84% | 13% | 54% | 65% | 84% | 82% | 30% | – | – | – | – | – | – | – | 73% |
| 422217 (antisense eG*eA*eG*dT*dT*d[5mC]*dT*dG*d[5mC]*dA*dG*dG*dA*dG*d[5mC]*dG*dG*e[5mC]*e[5mC]*eT) [compound 422217] | 15% | 19% | 29% | 55% | 61% | 83% | 8% | 45% | 63% | 79% | 83% | 18% | – | – | – | – | – | – | – | 75% |
